Measurements reported in patent publication EP4559919A1, “TRICYCLIC-CONTAINING MACROCYCLIC COMPOUND AND USE THEREOF” (Medshine Discovery Inc., priority 2022, dated 2024).

Key:
CYP3A4-M = molecular target: T1, CYP3A4-M (Homo sapiens, UniProt P08684); test: Cytochrome P450 isozyme inhibitory activity test (human liver microsomes); type: in vitro ADME; conditions: human liver microsomes 0.1 mg/mL
T1 construct: Mixed human liver microsomes (HLM) purchased from Corning Inc; tissue Corning Inc; host or cells: pooled human liver microsomes
T1 sequence (P08684 whole entry): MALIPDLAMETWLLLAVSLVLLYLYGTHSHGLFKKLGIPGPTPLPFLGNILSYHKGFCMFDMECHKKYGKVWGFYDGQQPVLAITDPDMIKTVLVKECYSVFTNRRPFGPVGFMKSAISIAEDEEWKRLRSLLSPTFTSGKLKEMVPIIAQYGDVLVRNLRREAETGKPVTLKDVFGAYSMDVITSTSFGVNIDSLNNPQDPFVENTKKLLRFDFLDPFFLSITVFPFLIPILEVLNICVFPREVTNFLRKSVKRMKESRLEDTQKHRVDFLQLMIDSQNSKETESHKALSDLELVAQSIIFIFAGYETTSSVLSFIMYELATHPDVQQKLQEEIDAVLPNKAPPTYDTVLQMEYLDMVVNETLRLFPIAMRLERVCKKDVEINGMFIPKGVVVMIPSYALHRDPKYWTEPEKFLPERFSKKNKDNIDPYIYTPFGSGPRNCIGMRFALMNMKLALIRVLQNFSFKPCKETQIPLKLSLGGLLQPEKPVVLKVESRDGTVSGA

CYP2C19 = molecular target: T2, CYP2C19 (Homo sapiens, UniProt P33261); test: as above; type: in vitro ADME; conditions: human liver microsomes 0.1 mg/mL
T2 construct: Mixed human liver microsomes (HLM) purchased from Corning Inc; tissue Corning Inc; host or cells: pooled human liver microsomes
T2 sequence (P33261 whole entry): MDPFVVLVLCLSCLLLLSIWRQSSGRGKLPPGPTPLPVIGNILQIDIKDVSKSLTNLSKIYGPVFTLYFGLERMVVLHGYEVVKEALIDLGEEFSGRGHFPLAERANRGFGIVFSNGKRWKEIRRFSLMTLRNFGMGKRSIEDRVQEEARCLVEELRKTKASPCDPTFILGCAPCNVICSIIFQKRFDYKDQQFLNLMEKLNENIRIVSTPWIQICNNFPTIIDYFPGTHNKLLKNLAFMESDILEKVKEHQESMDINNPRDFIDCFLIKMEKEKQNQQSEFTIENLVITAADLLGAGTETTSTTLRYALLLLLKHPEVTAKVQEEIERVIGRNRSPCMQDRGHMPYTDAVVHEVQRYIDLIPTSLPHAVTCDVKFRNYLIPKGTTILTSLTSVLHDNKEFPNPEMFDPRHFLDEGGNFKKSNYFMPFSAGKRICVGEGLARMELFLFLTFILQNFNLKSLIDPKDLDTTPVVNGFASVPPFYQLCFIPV

CYP2C9 = molecular target: T3, CYP2C9 (Homo sapiens, UniProt P11712); test: as above; type: in vitro ADME; conditions: human liver microsomes 0.1 mg/mL; probe substrate Diclofenac
T3 construct: Mixed human liver microsomes (HLM) purchased from Corning Inc; tissue Corning Inc; host or cells: pooled human liver microsomes
T3 sequence (P11712 whole entry): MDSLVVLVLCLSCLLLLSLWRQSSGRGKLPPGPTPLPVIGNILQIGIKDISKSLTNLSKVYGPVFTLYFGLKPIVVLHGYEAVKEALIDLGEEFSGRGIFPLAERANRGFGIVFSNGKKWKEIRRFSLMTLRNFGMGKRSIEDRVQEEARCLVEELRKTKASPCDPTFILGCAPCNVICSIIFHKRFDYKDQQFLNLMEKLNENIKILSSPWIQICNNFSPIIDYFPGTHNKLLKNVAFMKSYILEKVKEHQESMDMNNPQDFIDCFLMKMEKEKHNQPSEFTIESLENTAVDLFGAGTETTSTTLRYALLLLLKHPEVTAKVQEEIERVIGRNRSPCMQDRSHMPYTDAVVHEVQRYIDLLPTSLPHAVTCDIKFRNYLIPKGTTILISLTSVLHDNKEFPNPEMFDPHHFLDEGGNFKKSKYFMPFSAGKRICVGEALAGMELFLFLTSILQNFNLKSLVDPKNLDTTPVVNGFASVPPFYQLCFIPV
Experimental: To test the inhibitory activity of the compounds of the present disclosure on different subtypes of human liver microsomal cytochrome P450 isozymes.
Mixed human liver microsomes (HLM) purchased from Corning Inc. (Steuben, New York, USA); Diclofenac as the probe substrate (10 µM); Sulfaphenazole as the positive control inhibitor; 4'-Hydroxydiclofenac as the metabolite
Preparation of test system working solution: Human liver microsomes (HLM): HLM stock solution at 20.0 mg/mL, working solution at 0.2 mg/mL, final concentration at 0.1 mg/mL; Potassium phosphate buffer: 100 mM; Cofactor working solution: Magnesium chloride, NADP (nicotinamide adenine dinucleotide phosphate), G6P (glucose-6-phosphate), G6PDH (glucose-6-phosphate dehydrogenase), and phosphate buffer or magnesium chloride, NADPH (reduced nicotinamide adenine dinucleotide phosphate) powder, and potassium phosphate buffer; prepared into cofactor working solution at appropriate ratios;
Stop solution: Isotope-labeled 4'-hydroxydiclofenac-d4 stock solution prepared in methanol, then prepared into stop solution using acetonitrile.
In the substrate-free control sample wells of the reaction plate, 100 µL of a mixture of human liver microsome and potassium phosphate buffer was added. At the zero-time point sample wells, 98 µL of a mixture of the human liver microsome and potassium phosphate buffer was added. In the no-inhibitor control (NIC), test compound, and positive control inhibitor sample wells of the reaction plate, 100 µL of a mixture of the human liver microsome and substrate was added. From the dilution plate, 2 µL of blank solvent, test compound working solution (three parallels), and positive control inhibitor working solution (two parallels) were added to the reaction plate. The reaction plate was preheated at 37.0°C for 10 minutes. […] The concentration of specific metabolites in the samples was detected using the liquid chromatography-tandem mass spectrometry (LC-MS/MS) method. […] The IC50 values were calculated using a three-parameter or four-parameter inverse log equation.

TRKB = molecular target: T4, TRKB (Homo sapiens, UniProt Q16620); test: In vitro kinase inhibitory activity assay, Experimental method 2 (ADP-Glo); type: biochemical; conditions: Experimental method 2; ATP 5.0 µM, substrate PolyE4Y1; read-out: Kinase half maximal inhibitory concentration IC50 TRKB
T4 construct: purchased Carna
T4 sequence (Q16620 32-822): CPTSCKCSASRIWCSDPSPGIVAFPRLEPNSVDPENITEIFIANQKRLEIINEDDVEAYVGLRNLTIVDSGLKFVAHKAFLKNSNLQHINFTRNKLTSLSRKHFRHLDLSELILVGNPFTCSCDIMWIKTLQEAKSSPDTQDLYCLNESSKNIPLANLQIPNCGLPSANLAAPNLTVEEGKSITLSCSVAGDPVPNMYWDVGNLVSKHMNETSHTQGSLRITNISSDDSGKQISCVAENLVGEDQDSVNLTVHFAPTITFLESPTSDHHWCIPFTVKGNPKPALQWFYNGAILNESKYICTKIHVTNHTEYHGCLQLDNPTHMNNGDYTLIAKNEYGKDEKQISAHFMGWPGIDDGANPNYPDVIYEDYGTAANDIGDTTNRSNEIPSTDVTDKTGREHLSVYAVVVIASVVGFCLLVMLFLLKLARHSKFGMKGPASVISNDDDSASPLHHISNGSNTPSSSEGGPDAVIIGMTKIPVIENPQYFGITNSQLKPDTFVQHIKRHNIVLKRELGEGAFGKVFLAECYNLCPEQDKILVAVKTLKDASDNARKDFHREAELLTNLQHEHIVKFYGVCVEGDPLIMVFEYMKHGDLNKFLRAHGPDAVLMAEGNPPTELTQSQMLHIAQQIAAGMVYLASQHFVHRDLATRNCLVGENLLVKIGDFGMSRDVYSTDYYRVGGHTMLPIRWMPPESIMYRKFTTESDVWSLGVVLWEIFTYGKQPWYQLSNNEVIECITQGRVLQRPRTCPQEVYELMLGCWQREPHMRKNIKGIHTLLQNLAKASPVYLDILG

Cc1nn2cc3c4nc2c1C(=O)NC1(CC1)COc1ccc(F)cc1CN4[C@H](C(F)F)CO3 [Compound 016]
IC50 (CYP3A4-M): > 50 µM
IC50 (CYP2C19): 22.7 µM
IC50 (CYP2C9): 3.12 µM
IC50 (TRKB): 0.0003 µM
